These results are taken from patent US8835380B2, “Therapeutic conjugates” (University College Cardiff Consultants Limited, priority 2010, dated 2014).

One data set deals with HK2 kidney cells. Briefly: MTT assay, cell viability. It is filed as cell-based, human. Conditions: 72 h incubation. As to the method: The MTT assay was used to assess cell viability (72 h incubation) in a human kidney (HK2) cell line. Cells were seeded into sterile 96-well microtitre plates (1×10^5 cells/mL) in 0.1 mL/well of media (DMEM) containing FCS (10% v/v). They were allowed to adhere for 24 h. The medium was then removed and test compounds (0.2 μm filter-sterilized) were added to the cells. To study the effect of colistin, CMS, dextrin-colistin conjugate and succinoylated dextrin (8,000 g/mol, 1.1 mol % succinoylation) on cell viability, complete media (+FCS) was supplemented with a range of concentrations of each. To study the effect of ‘unmasked’ dextrin-colistin on cell viability, complete media (+FCS) was supplemented with a range of concentrations of conjugate and amylase (100 IU/L). After a further 67 h incubation, MTT (20 μL of a 5 mg/mL solution in PBS) was added to each well and the cells were incubated for a further 5 h. The medium was then removed and the precipitated formazan crystals solubilized by addition of optical grade DMSO (100 μL) over 30 min. Absorbance was measured at 540 nm using a microtitre plate reader. Cell viability was expressed as a percentage of the viability of untreated control cells. The IC50 values were expressed as mean±SEM (n=18).

The test system of another data set is LPS from E. coli. The data set can be described thus: LAL assay (endotoxin neutralisation). It is filed as biochemical. Conditions: 4 μg/mL. As to the method: A colorimetric assay technique was used in which the clotting reaction of Limulus amoebocyte lysate (LAL) in the presence of LPS was measured spectrophotometrically at 540 nm.
LPS was dissolved in pyrogen free water (0-50 ng/mL) containing colistin, CMS, dextrin-colistin or unmasked dextrin-colistin (4 μg/mL, 100 μL) in pyrogen-free vials. Control samples contained only LPS dissolved in pyrogen-free water. Solutions were mixed well and incubated at 37° C. for 3 h. Reconstituted LAL (100 μL) was then added and the solution mixed well before incubation at 37° C. for 45 min. Next, reconstituted substrate solution (100 μL) was added to each vial, mixed well and incubated for a further 6 min. Finally, the reaction was terminated by addition of reconstituted stop solution and colour stabilisers. Samples (100 μL) were pipetted into the wells of a 96-well microtitre plate (6 wells per sample) and absorption was read spectrophotometrically at 540 nm. The concentration of LPS producing 50% maximal absorption was taken as the ED50.
To study the effect of amylase on the activity of dextrin-colistin conjugates, dextrin-colistin conjugates (0.5 mg/mL) were first incubated with amylase (100 IU/L) for 6 and 24 h at 37° C. in PBS (pH 8.2). The endotoxin binding activity assays were then followed as described above.

Data set [1] deals with Pseudomonas aeruginosa mucoid strain. Briefly: MIC broth microdilution (first mucoid strain, Table 3 r46). It is filed as cell-based. Conditions: amylase (100 IU/L) pre-incubation time 0. Here is the method: (§1) Antimicrobial activity was measured using broth microdilution in a minimum inhibitory concentration (MIC) assay according to the Clinical and Laboratory Standards Institute (formerly NCCLS; 2003, Methods for Dilution Antimicrobial Susceptibility Tests for Bacteria That Grow Aerobically, Approved Standard—Sixth Edition. M7A6. Clinical and Laboratory Standards Institute. Wayne, Pa.). Test organisms were suspended in Mueller Hinton cation adjusted broth (100 μL, 1-5×10^4 CFU/mL) and incubated in 96-well microtitre plates in serial two-fold dilutions of the test compounds.
(§2) The antimicrobial activity of dextrin-colistin was also determined following incubation of the conjugate with amylase. Dextrin-colistin conjugates (3 mg/mL colistin eq.) were first incubated with amylase (100 IU/L for up to 48 h at 37° C. in PBS buffer (pH 8.2)).
(In broth dilution the organism is exposed to a series of concentrations in liquid medium.)

In data set [2] the test system is Pseudomonas aeruginosa MDR 301 PSA. Briefly: MIC broth microdilution. It is filed as cell-based. Conditions: amylase (100 IU/L) pre-incubation time 0. Here is the method:
as §1, §2

The next data set deals with Escherichia coli AIM-1. Briefly: MIC broth microdilution. It is filed as cell-based. The conditions noted are these: amylase (100 IU/L) pre-incubation time 0. As to the method: as §1, §2
Data set [3] has as its system Klebsiella pneumoniae KP05 506. The data set can be described thus: MIC broth microdilution. It is filed as cell-based. The conditions noted are these: amylase (100 IU/L) pre-incubation time 0. As to the method: as §1, §2
Data set [4] has as its system Klebsiella pneumoniae 5725. Briefly: MIC broth microdilution. Conditions: amylase (100 IU/L) pre-incubation time 0. It is filed as cell-based. Here is the method:
as §1, §2

The test system of another data set is Acinetobacter baumannii. The data set can be described thus: MIC broth microdilution. The conditions noted are these: amylase (100 IU/L) pre-incubation time 0. It is filed as cell-based. Here is the method:
as §1, §2

In data set [5] the test system is Pseudomonas aeruginosa R22 PSA. Briefly: MIC broth microdilution. It is filed as cell-based. Conditions: amylase (100 IU/L) pre-incubation time 0. Here is the method: as §1, §2
The subject of another data set is Escherichia coli 7273. Briefly: MIC broth microdilution. It is filed as cell-based. The conditions noted are these: amylase (100 IU/L) pre-incubation time 0. As to the method:
as §1, §2

For another data set, the system named is Klebsiella pneumoniae K3. The data set can be described thus: MIC broth microdilution. It is filed as cell-based. The conditions noted are these: amylase (100 IU/L) pre-incubation time 0. Here is the method: as §1, §2
Data set [6] concerns Pseudomonas aeruginosa PA01. The data set can be described thus: MIC broth microdilution. It is filed as cell-based. Conditions: amylase (100 IU/L) pre-incubation time 0. As to the method:
as §1, §2

Data set [7] concerns Klebsiella pneumoniae IR25. The data set can be described thus: MIC broth microdilution. It is filed as cell-based. Conditions: amylase (100 IU/L) pre-incubation time 0. Here is the method:
as §1, §2

In data set [8] the test system is Acinetobacter baumannii MDR ACB. Briefly: MIC broth microdilution. It is filed as cell-based. Conditions: amylase (100 IU/L) pre-incubation time 0. As to the method: as §1, §2
The next data set concerns Escherichia coli 5702. The data set can be described thus: MIC broth microdilution. It is filed as cell-based. The conditions noted are these: amylase (100 IU/L) pre-incubation time 0. Here is the method: as §1, §2
Data set [9] relates to Providencia stuartii IR57. Briefly: MIC broth microdilution. It is filed as cell-based. Conditions: amylase (100 IU/L) pre-incubation time 0. As to the method:
as §1, §2

A further data set deals with Acinetobacter lwoffi. The data set can be described thus: MIC broth microdilution. It is filed as cell-based. The conditions noted are these: amylase (100 IU/L) pre-incubation time 0. As to the method: as §1, §2
The test system of data set [10] is Acinetobacter lwoffi 6056. The data set can be described thus: MIC broth microdilution. It is filed as cell-based. The conditions noted are these: amylase (100 IU/L) pre-incubation time 0. As to the method:
as §1, §2

In data set [11] the test system is Acinetobacter haemolyticus 1554. Briefly: MIC broth microdilution. It is filed as cell-based. Conditions: amylase (100 IU/L) pre-incubation time 0. Here is the method: as §1, §2
The subject of data set [12] is Acinetobacter baumannii 7789. Briefly: MIC broth microdilution. It is filed as cell-based. Conditions: amylase (100 IU/L) pre-incubation time 0. Here is the method:
as §1, §2

In data set [13] the test system is Pseudomonas aeruginosa mucoid strain. Briefly: MIC broth microdilution (second mucoid strain, Table 3 r49). Conditions: amylase (100 IU/L) pre-incubation time 0. It is filed as cell-based. Here is the method:
as §1, §2

The next data set has as its target T1, human amylase (Homo sapiens, UniProt P0DUB6).
T1 construct: α-amylase from human saliva; purchased Sigma-Aldrich (Poole, UK); host or cells: human saliva (natural source)
The data set can be described thus: Release of colistin from dextrin-colistin conjugates by amylase (FPLC). It is filed as in vitro ADME. The conditions noted are these: amylase 100 IU/L in PBS, 37° C., CMS: hydrolysis in PBS. Here is the method:
To compare the rate of amylase degradation of dextrin, succinoylated dextrin and dextrin-colistin conjugates, solutions (3 mg/mL in PBS, pH 7.4) of each sample was prepared containing amylase (100 IU/L in PBS) and incubated at 37° C. for up to 48 h. At various time points, samples (300 μL) were taken, immediately snap frozen in liquid nitrogen to stop the reaction and then stored at −20° C. until analysis by GPC and FPLC (conjugates only). Prior to analysis, samples were placed in a water bath (100° C.) for 5 min to denature the enzyme activity of the amylase and stop polymer degradation. The supernatant was then analysed by GPC to determine the change in molecular weight over time and by FPLC to determine the change in free colistin over time.

T1 sequence (P0DUB6 16-511): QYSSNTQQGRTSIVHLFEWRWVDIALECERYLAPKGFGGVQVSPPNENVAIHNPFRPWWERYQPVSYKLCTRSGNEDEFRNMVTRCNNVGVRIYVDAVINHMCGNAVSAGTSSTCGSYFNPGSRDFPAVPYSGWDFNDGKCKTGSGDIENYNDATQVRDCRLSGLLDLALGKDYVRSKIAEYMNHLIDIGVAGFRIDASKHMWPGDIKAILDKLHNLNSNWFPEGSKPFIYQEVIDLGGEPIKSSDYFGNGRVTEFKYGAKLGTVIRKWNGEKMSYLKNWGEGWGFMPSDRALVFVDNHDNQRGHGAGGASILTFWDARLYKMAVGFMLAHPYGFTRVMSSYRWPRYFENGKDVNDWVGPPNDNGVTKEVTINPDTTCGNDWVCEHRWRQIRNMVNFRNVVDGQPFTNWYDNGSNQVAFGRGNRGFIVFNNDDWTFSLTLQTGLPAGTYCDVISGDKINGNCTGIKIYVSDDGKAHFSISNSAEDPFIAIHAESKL

In the case of colistin, in the data set with HK2 kidney cells, the “IC50 (cell viability)” value stood at 20 µg/mL. Besides, the “inhibition of cleavage of chromogenic substrate by E. coli LPS” value with LPS from E. coli is “able to inhibit”. Besides, the “LPS required to trigger Limulus amoebocyte lysate gelation compared to LPS in water” value with LPS from E. coli (preincubated 3 h at 37° C.) came to 20 fold. Further, the MIC in data set [1] is reported as 0.01; in data set [2] it was 0.125; in the data set with Escherichia coli AIM-1, 0.01; in data set [3] it was 0.125; in data set [4], 0.03; against Acinetobacter baumannii, 0.03. Further, the MIC in [5] is 0.03; against Escherichia coli 7273, <0.5; against Klebsiella pneumoniae K3, 0.06; in data set [6], 0.06; in data set [7], 0.03; in data set [8] it was 0.125. In addition, the MIC in the data set with Escherichia coli 5702 turned out to be 0.03; in [9], 0.01; against Acinetobacter lwoffi it was 0.25; in data set [10], 0.03; in data set [11], 4; in [12] it was 0.03. The MIC in data set [13] is reported as 0.008. Further, the “% colistin release after 24 h” value on human amylase stood at 100%.
For the substance colistin methanesulfonate [CMS], the “IC50 (cell viability)” value with HK2 kidney cells was 25 µg/mL. Further, the MIC in data set [1] is reported as 1; in [2] it was 1; in the data set with Escherichia coli AIM-1, 0.25; in data set [3], 2; in data set [4], 1; against Acinetobacter baumannii it was 4. For the same substance, the MIC in data set [5] is reported as 0.5; against Escherichia coli 7273 it was 2; with Klebsiella pneumoniae K3, 2; in data set [6], 1; in data set [7], 2; in data set [8], 4. The MIC is listed as 1 against Escherichia coli 5702; 1 in data set [9]; 4 with Acinetobacter lwoffi; 2 in [10]; 8 in [11]; 2 in data set [12]. The MIC in [13] is recorded as 0.25. Besides, the “% colistin release after 24 h” value at human amylase worked out at 23.6%.
